{"source": "patent US4672107A", "about": "“Cell growth inhibitor and method” (Inbex, Inc., priority 1985, dated 1987)", "origin": "cited, not measured here", "tested_on": "human embryonic palatal mesenchymal cells", "settings": "Yoneda and Pratt, Science 1981"}
{"substance": "Epidermal Growth Factor (NSDSECPLSHDGYCLHDGVCMYIEALDKYACNCVVGYIGERCQYRDLKWWELR; Epidermal growth factor; UniProt P01133 971-1023, looked up) [Epidermal Growth Factor (EGF)]", "values": [{"measurement": "stimulation of incorporation of 3[H]-thymidine into newly synthesized DNA", "result": "a little more than twofold"}]}
